{
  "source": "patent US6521631B2",
  "about": "“Heterocyclic sulfonamides” (Hoffmann-La Roche Inc., priority 1999, dated 2003)",
  "key": {"[1]": {"system": "isolated rat aorta rings", "settings": "for pA2: shift to the right of the endothelin-1 dosage-activity curve, endothelium-denuded thorax aorta rings", "description": "Inhibition of Endothelin-induced Contractions in Isolated Rat Aorta Rings\nRings with a length of 5 mm were cut out from the thorax aorta of adult Wistar-Kyoto rats. The endothelium was removed by lightly rubbing the internal surface. Each ring was immersed at 37° C. in 10 ml of Krebs-Henseleit solution in an isolated bath while gassing with 95% O2 and 5% CO2. The isometric stretching of the rings was measured. The rings were stretched to a pre-tension of 3 g. After incubation for 10 minutes with the test compound or vehicle cumulative dosages of endothelin-1 were added. […] This shift to the right (or “dose ratio”, DR) corresponds to the quotient from the EC50 values of endothelin-1 in the presence and in the absence of antagonist, with the EC50 value denoting the endothelin concentration required for a half-maximum contraction.\nThe corresponding pA2 value, which is a measure of the activity of the test compound, was calculated using a computer programme according to the following equation from the “dose ratio” DR for each individual dosage-activity curve.\npA2=log(DR−1)−log(antagonist-concentration)"}, "[2]": {"biological_target": "T1, human ETA receptors (Homo sapiens, UniProt P25101)", "T1 construct": "made in house; host or cells: Baculovirus-infected insect cells (membrane preparation)", "T1 sequence (P25101 21-427)": "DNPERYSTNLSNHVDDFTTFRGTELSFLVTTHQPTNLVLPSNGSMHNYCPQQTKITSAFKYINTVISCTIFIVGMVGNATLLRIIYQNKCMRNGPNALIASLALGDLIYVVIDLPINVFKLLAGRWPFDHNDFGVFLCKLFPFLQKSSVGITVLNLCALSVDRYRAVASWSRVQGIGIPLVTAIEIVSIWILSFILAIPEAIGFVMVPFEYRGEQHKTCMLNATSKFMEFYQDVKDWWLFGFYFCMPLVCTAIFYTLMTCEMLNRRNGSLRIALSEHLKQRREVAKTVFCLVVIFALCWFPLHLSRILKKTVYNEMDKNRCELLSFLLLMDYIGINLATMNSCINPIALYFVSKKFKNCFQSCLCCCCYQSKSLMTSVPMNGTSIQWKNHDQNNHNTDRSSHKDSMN", "assay": "Inhibition of 125I-endothelin binding to recombinant human ETA receptors expressed in Baculovirus-infected insect cells", "settings": "recombinant human ETA receptor membranes, 20 pM 125I-endothelin; read-out: IC50, concentration required to inhibit 50% of the specific binding of 125I-endothelin", "procedure": "I. Inhibition of Endothelin Binding to Recombinant Human ETA Receptors Expressed in Baculovirus-infected Insect Cells\nA cDNA coding for human ETA receptors of human placenta was cloned (M. Adachi, Y.-Y. Yang, Y. Furuichi and C. Miyamoto, BBRC 180, 1265-1272) and expressed in the Baculovirus-insect cell system. Baculovirus-infected insect cells from a 23 l fermenter are centrifuged off (3000×g, 15 minutes, 4° C.) 60 hours after the infection, re-suspended in Tris buffer (5 mM, pH 7.4, 1 mM MgCl2) and again centrifuged. After a further re-suspension and centrifugation the cells are suspended in 800 ml of the same buffer and freeze-dried at −120° C. The cells disintegrate when the suspension in this hypotonic buffer mixture is thawed. After a repeated […]/thawing cycle the suspension is homogenised and centrifuged (25000×g, 15 minutes, 4° C.). After suspension in Tris buffer (75 mM, pH 7.4, 25 mM MgCl2, 250 mM sucrose) 1 ml aliquots (protein content about 3.5 mg/ml) are stored at −85° C.\nFor the binding assay, the freeze-dried membrane preparations are thawed and, after centrifugation at 20° C. and 25000 g for 10 minutes, re-suspended in assay buffer (50 mM Tris buffer, pH 7.4, containing 25 mM MnCl2, 1 mM EDTA and 0.5% bovine serum albumin). 100 μl of this membrane suspension containing 70 μg of protein are incubated with 50 μl of ^125I-endothelin (specific activity 2200 Ci/mMol) in assay buffer (25000 cpm, final concentration 20 pM) and 100 μl of assay buffer containing varying concentrations of test compound. The incubation is carried out at 20° C. for 2 hours or at 4° C. for 24 hours. The separation of free and membrane-bound radio-ligands is carried out by filtration over a glass fibre filter. The inhibitory activity of compounds of formula (I) determined in this test procedure is given in Table 1 as the IC50, i.e. as the concentration [nM] which is required to inhibit 50% of the specific binding of ^125I-endothelin."}},
  "data": [
    {"compound": "CC[C@H](C)[C@H](NC(=O)[C@H](CC(=O)O)NC(=O)[C@H](CC(C)C)NC(=O)[C@H](Cc1c[nH]cn1)NC(=O)[C@@H]1CSSC[C@H](N)C(=O)N[C@@H](CO)C(=O)N[C@H]2CSSC[C@H](NC(=O)[C@H](CCC(=O)O)NC(=O)[C@H](CCCCN)NC(=O)[C@H](CC(=O)O)NC(=O)[C@H](CCSC)NC(=O)[C@H](CC(C)C)NC(=O)[C@H](CO)NC(=O)[C@H](CO)NC2=O)C(=O)N[C@@H](C(C)C)C(=O)N[C@@H](Cc2ccc(O)cc2)C(=O)N[C@@H](Cc2ccccc2)C(=O)N1)C(=O)N[C@H](C(=O)N[C@@H](Cc1c[nH]c2ccccc12)C(=O)O)[C@@H](C)CC", "note": "[endothelin, reference compound]", "values": [
      {"measurement": "EC50", "setting": "[1]; read-out: EC50 of endothelin in the absence of test compounds, endothelin concentration required for a half-maximum contraction, no antagonist", "result": 0.3, "unit": "nM"}
    ]},
    {"compound": "C=C(C)c1ccc(S(=O)(=O)Nc2nc(-c3ccncc3)nc(OC)c2Oc2ccccc2OC)nc1", "note": "[Example 3, 5-isopropenyl-pyridine-2-sulfonic acid[6-methoxy-5-(2-methoxy-phenoxy)-2-pyridin-4-yl-pyrimidin-4-yl]-amide]", "values": [
      {"measurement": "IC50", "setting": "[2]", "result": "≤ 50", "unit": "nM"}
    ]},
    {"compound": "COc1ccccc1Oc1c(NS(=O)(=O)c2ccc(C(C)C)cn2)nc(-c2ccncc2)nc1OC", "note": "[Example 2, 5-isopropyl-pyridine-2-sulfonic acid[6-methoxy-5-(2-methoxy-phenoxy)-2-pyridin-4-yl-pyrimidin-4-yl]-amide]", "values": [
      {"measurement": "IC50", "setting": "[2]", "result": "≤ 50", "unit": "nM"},
      {"measurement": "melting point", "result": "195 to 197", "unit": "°C"},
      {"measurement": "pA2", "setting": "[1]", "result": "≧8.0"}
    ]},
    {"compound": "COc1ccccc1Oc1c(NS(=O)(=O)c2ccc(C)cn2)nc(-c2ccncc2)nc1OC", "note": "[Example 1, 5-methyl-pyridine-2-sulfonic acid[6-methoxy-5-(2-methoxy-phenoxy)-2-pyridin-4-yl-pyrimidin-4-yl]-amide]", "values": [
      {"measurement": "IC50", "setting": "[2]", "result": "≤ 50", "unit": "nM"},
      {"measurement": "pA2", "setting": "[1]", "result": "≧8.0"}
    ]}
  ]
}
